From patent US5968526A, “T cell epitopes of the major allergens from Dermatophagoides (house dust mite)” (Immulogic Pharamaceutical Corporation, priority 1995, dated 1999) come the findings set out here.

The test system of assay [1] is T cell lines primed in vitro to Der p II. Briefly: secondary proliferation of Der p II-primed T cell lines (Examples VIII, X, XI). The class given is cell-based, human. The following applies: for T cell reactivity: overlapping Der p II peptides, FIG. 9; for T cell reactivity / T cell response to Der f II peptides: 26 positive experiments; for T cell response: patient 348, native Der p II primed, data not shown; for T cell response to Der f II peptides: Der p II primed, FIG. 12. On the procedure: Experiments similar to those of Example V were performed to determine the T cell-reactive areas of the Der p II protein. For example, PBMC from house dust mite-allergic patient 348 were isolated as described in Example V and were stimulated in vitro with 20 μg/ml purified native Der p II.
The above procedure was followed with a number of patients except in individual cases, T cell lines were primed with recombinant Der p II at 20 μg/ml or at 3 μg/ml and x-irradiated (3500 Rads) autologous PBMC were used as antigen-presenting cells. The data was analyzed as described in Example V, except the ranked sum of peptide responses was analyzed assigning a value of 3, 2 or 1 to the three highest S.I. responses.
A study similar to that described in Example VII was carried out to determine the T cell cross-reactivity of the Der p II and Der f II proteins. T cells primed with the Der f II protein were challenged with various Der f II peptides and a set of substantially matching Der p II peptides.
Another experiment following the procedure described in Example VIII analyzed the response of 29 patients primed in vitro to the Der p II protein and challenged with selected peptides derived from the Der p II sequence.

Assay [2] has as its system T cell lines primed in vitro to Der f II. Briefly: secondary proliferation of Der f II-primed T cell lines (Examples IX, X, XI). The class given is cell-based, human. To be noted: for T cell response to Der p II peptides: Der f II primed, FIG. 11; for T cell response to Der p II peptides / T cell reactivity: 10 positive experiments; for T cell reactivity: overlapping Der f II peptides, FIG. 10; for T cell response: patient 384, recombinant Der f II primed, data not shown. On the procedure: Experiments similar to those of Example V were performed to determine the T cell-reactive areas of the Der f II protein. For example, PBMC from house dust mite-allergic patient 384 were stimulated in vitro with purified recombinant Der f II and the T cell line was then challenged in the presence of x-irradiated (25,000 Rads) autologous Epstein-Barr virus transformed B cells as antigen presenting cells with various overlapping […]. The results of this proliferation assay indicate that T cells from this particular patient respond well to peptides DF II-1, DF II-2, DF II-3.1, DF II-4.5, DF II-15, DF II-16, and DF I-19.1 (data not shown).
The above procedure was followed with 10 patients, except in individual cases, T cell lines were primed by stimulating the patient PBMC with 20 μg/ml or 3 μg/ml purified native Der f II, and were assayed in the presence of x-irradiated (3500 Rads) autologous PBMC as antigen-presentingcells.
A study similar to that described in Example VII was carried out to determine the T cell cross-reactivity of the Der p II and Der f II proteins. T cells primed with the Der f II protein were challenged with various Der f II peptides and a set of substantially matching Der p II peptides. […]

For another assay, the system named is human IgE. The experiment in a line: direct binding ELISA of IgE to mite allergen proteins and peptides. The following applies: plasma of 19 mite-allergic patients and pool of 18; Example XV. On the procedure:
The coating antigens were removed and the wells are blocked with 0.5% gelatin in PBS, 300 μl/well for 2 hours at room temperature. Pooled human plasma (a mix of plasma samples from 20 patients that were skin test positive for commerical mite extract) was serially diluted with PBS-Tween 20 (PBS with 0.05% nonionic detergent Tween-20 Sigma, St. Louis, Mo.) and 100 μl/well a.backslash.was added and incubated overnight at 4° C. (plasma dilutions were tested in duplicate). The second antibody (biotinylated goat anti-Human IgE, 1:1000, Kirkegaard & Perry Laboratories Inc, Gaithersburg, Md.), was added at 100 μl/well for one hour at room temperature. This solution was removed and streptavidin-HRPO, 1:10000, (Southern Biotechnology Associates, Inc., Birmingham, Ala.) was then added at 100 μl/well for one hour at room temperature (all wells are washed three times with PBS-Tween between each incubation step). TMB Membrane Peroxidase Substrate system (Kirkegaard & Perry Laboratories) was freshly miced, and added at […]. The color was allowed to develop for 2-5 minutes. The reaction was stopped by the addition of […] of 1M phosphoric acid. Plates were read on a Microplate IL310 Autoreader (Biotech Instruments, Winooski, Vt.) with a 450 nm filter. The absorbance levels of duplicate wells were averaged. The order of coating antigens listed vertically in these figure legends corresponds in orDer from left to right to the coating antigens listed for each histogram.
The antigen preparation that was used as a positive control was a mixture of the four major biochemically purified mite allergens (term PMA for Purified Mite Allergen); Der f I, Der f II, Der p I and Der p II. The stock was generated at a concentration of 100 μgs of each protein per millimeter or 400 μgs total protein/ml. This preparation was used on each coated ELISA plate.

Assay [3] concerns T cell lines primed in vitro with Der p I. Briefly: T cell proliferation with fine map and modified Group I peptides (Example XIV). The class given is cell-based, human. The method, then:
Long term T cell lines were established by stimulation of 2×10^6 PBL/ml in bulk cultures of complete medium (RPMI-1640, 2 mM L-glutamine, 100 U/ml penicillin/streptomycin, 5×10^-5 M 2-mercaptoethanol, and 10 mM HEPES supplemented with 5% heat inactivated human AB serum) with 30 μg/ml of purified native Der p I or Der p II for 5-6 days at 37° C. in a humidified 5% CO2 incubator to select for house dust mite protein allergen reactive T cells. This amount of priming antigen was determined to be optimal for the activation of T cells from house dust mite allergic patients. Viable cells were purified by LSM centrifugation and cultured in complete medium supplemented with 5 units recombinant human IL-2/ml and 5 units recombinant human IL-4/ml for up to three weeks until the cells no longer responded to lymphokines and were considered "rested". The ability of the T cells to proliferate to selected peptides, purified Der p I or Der p II, or positive (PHA) controls or negative controls (medium only) was then assessed. For assay, 2×10^4 rested cells were restimulated in the presence of 2×10^4 autologous Epstein-Barr virus (EBV)-transformed B cells (prepared as described below) (gamma-irradiated with 25,000 RADS) or with 5×10^4 autologous PBMs (gamma-irradiated with 3500 RADS), with 2-50 μg/ml of purified native Der p I or Der p II in a volume of 200 μl complete medium in duplicate or triplicate wells in 96-well round bottom plates for 3 days. Each well then received 1 μCi tritiated thymidine for 16-20 hours. The counts incorporated were collected onto glass fiber filter mats and processed for liquid scintillation counting. […] The titrations were used to optimize the dose of peptides in T cell assays.
The maximum response in a titration of each peptide is expressed as the stimulation index (S.I.). The S.I. is the counts per minute (CPM) incorporated by cells in response to peptide, divided by the CPM incorporated by cells in medium only. […] The positive results were used in calculating mean stimulation indices for each peptide for the individual patient tested.
The above procedure was followed with 18 patients in the studies using peptides derived from Der p I and Der f I (FIGS. 31a-b), and 21 patients in the studies with Der p II peptides (FIGS. 32a-b). Individual patient results were used in calculating the mean S.I. for each peptide if the patient responded to the Der p I or Der p II protein at an S.I. of 2.0 or greater and the patient responded to at least one peptide derived from a house dust mite allergen at an S.I. f 2.0 or greater. A summary of positive experiments from the patients tested is shown in FIGS. 32a and 32b and FIGS. 33a and 33b. The bars represent the positivity index. […] In parenthesis above each bar are the mean stimulation indices for each peptide or protein for the group of patients tested.
Autologous EBV-transformed cell lines were γ-irradiated with 25,000 Rad and used as antigen presenting cells in secondary proliferation assays and secondary bulk stimulations. These EBV-transformed cell lines were made by incubating 5×10^6 PBL with 1 ml of B-59/8 Marmoset cell line (ATCC CRL1612, American Type Culture Collection, Rockville, Md.) conditioned medium in the presence of 1 μg/ml phorbol 12-myristate 13-acetate (PMA) at 37° C. for 60 minutes in 12×75 mm polypropylene round-bottom Falcon snap cap tubes (Becton Dickinson Labware, Lincoln Park, N.J.). These cells were then diluted to 1.25×10^6 cells/ml in RPMI-1640 as described above except supplemented with 10% heat-inactivated fetal bovine serum and cultured in 200 μl aliquots in flat bottom culture plates until visible colonies were detected. They were then transferred to larger wells until the cell lines were established.

For assay [4], the system named is PBMC from mite-allergic patient. The experiment in a line: primary T cell (PBMC) proliferation, mite-allergic patient, tritiated thymidine. The following applies: medium 1071 ± 30. The class given is cell-based, human. On the procedure:
Peripheral blood mononuclear cells (PBMC) were purified by Ficoll-Hypaque centrifugation of a peripheral blood specimen from mite-allergic patient and were assayed for proliferation in response to various antigens, i.e., affinity-purified Der p I, affinity purified Der p II, various Der p I and Der p II peptides. For assay, 5×10^4 PBMC were cultured in triplicate microwells for 7 days at 37° C. in the presence of various concentrations of antigen in 200 μl RPMI-1640 containing 5% human AB serum. Each well then received 1 μCi tritiated thymidine for 16 hours. The counts incorporated were collected onto glass fiber filters and processed for liquid scintillation counting. […] The CPM +/- standard deviation are shown. The stimulation index of each response (S.I.) is the ratio of the ^3 H-thymidine CPM incorporated by the cells in response to antigen divided by the ^3 H-thymidine CPM incorporated by cells in medium only. […] Thus, these peptides contain Der p I or Der p II T cell epitopes recognized by T cells from this particular allergic patient.

Regarding “DP II-1: Der p II peptide (DQVDVKDCANHEIKKVLVPG)”, in assay [1], the T cell reactivity result is “significant T cell reactivity” and the T cell response entry is “responds well”. Also, the “T cell response to Der p II peptides” value in assay [2] is recorded as “respond significantly”.

“DF II-1: Der f II peptide (DQVDVKDCANNEIKKVMVDG)”: in assay [1], the “T cell response to Der f II peptides” value was “respond significantly”. In assay [2], the T cell reactivity entry is “significant areas of T cell reactivity” and the T cell response result is reported as “respond well”.

In the case of “DF II-13.1: Der f II peptide (HGSDPCIIHRGKPFTLEALFDANQNTKTA)”, in assay [2], the T cell reactivity entry is on record as “significant areas of T cell reactivity”.

For the substance “DF II-17: Der f II peptide (CPLVKGQQYDAKYTWNVPKIAPKSENV)”, the “T cell response to Der f II peptides” value in assay [1] is “respond significantly”. Moreover, the T cell reactivity entry in assay [2] is reported as “significant areas of T cell reactivity”.

With “DF II-19.1: Der f II peptide (VVTVKLVGDNGVLACAIATHAKIRD)”, in assay [1], the “T cell response to Der f II peptides” value is “respond significantly”. Further, the T cell reactivity result in assay [2] was “significant areas of T cell reactivity”.

“DP II-25.2: Der p II peptide (TVKVLGDDGVLASAIATHAKIRD)”: the “ranked sum of peptide responses” value in assay [2] (FIG. 18b, preferred Der p II peptides) is on record as “highest ranked sum”.

In the case of “DF II-16: Der f II peptide (LEIDVPGIDTNACHFMKCPLVKGQQY)”, the T cell response result in assay [2] is listed as “respond well”.

For “DP I-23.35: modified Der p I peptide (DEKEGVVQESYYRYVAREQSCRRPNADKE)”, the “IgE binding (ELISA), modified peptides” value with human IgE is “No plasma samples contained IgE”. Moreover, the “positive T cell responses, modified peptides” value in assay [3] (18 T cell lines, affinity purified Der p I primed, FIG. 31a) is given as “all eighteen T cell lines responded positively”. In assay [3] (FIGS. 31a-b), the “T cell response, Group I peptides” value is listed as “positive T cell studies”.

As for “DF II-4.5: Der f II peptide (TLEALFDANQNTKTAKIEIKASLDG)”, in assay [1], the “T cell response to Der f II peptides” value is “respond significantly”. Also, in assay [2], the T cell reactivity entry is listed as “significant areas of T cell reactivity” and the T cell response result was “respond well”.

For the substance “DF II-15: Der f II peptide (KIEIKASLDGLEIDVPGIDTNACHFMK)”, the “T cell response to Der f II peptides” value in assay [1] is “respond significantly”. Moreover, in assay [2], the T cell reactivity result is “significant areas of T cell reactivity” and the T cell response result was “respond well”.

Consider “DP II-7: Der p II peptide (CPLVKGQQYDIKYTWNVPKIAPKSENV)”, for which, in assay [1], the T cell reactivity result is on record as “significant T cell reactivity” and the T cell response entry is “responds well”. Besides, in assay [2], the “T cell response to Der p II peptides” value is recorded as “respond significantly”.

As for “DP II-4: Der p II peptide (QLEAVFEANQNTKTAKIEIKASIDG)”, the “T-cell reactivity (DPII-22 series development)” value in assay [1] (Der p II T-cell map and analogs) was “high T-cell reactivity”. The T cell reactivity entry in assay [1] is “significant T cell reactivity”. Besides, the “T cell response to Der p II peptides” value in assay [2] is “respond significantly”. Also, the “CPM ± S.D.” value in assay [4] (10 μg/ml) was 2126 ± 25 CPM; in assay [4] (30 μg/ml), 1979 ± 94 CPM; in assay [4] (100 μg/ml), 2314 ± 116 CPM.

In the case of “DF II-3.1: Der f II peptide (HRGKPFTLEALFDANQNTK)”, the T cell response result in assay [2] was “respond well”.
